Source: paper PMC5486114, “Interactions between a Heparin Trisaccharide Library and FGF-1 Analyzed by NMR Methods” (International Journal of Molecular Sciences, 2017)
Like-named read-outs stand apart in the source and are kept apart here.

Columns and labels:
Human recombinant FGF-1 [1] = target: T1, Human recombinant FGF-1 (Homo sapiens, UniProt P05230); test: STD-NMR initial growth rates (STD0) of trisaccharides in presence of FGF-1; type: binding; settings: for STD0 H1-C: anomeric proton of ring C, 600 MHz, 289 K, protein 19 µM, ligand 1.6 mM; for Relative STD0 H1-A / Relative STD0 H1-B / Relative STD0 H1-C: relative to largest anomeric STD0 of the compound (=100)
T1 construct: Human recombinant FGF-1 consisting of 141 residues; purchased Peprotech; host or cells: E. coli
T1 sequence (P05230 with tags, fused parts or gaps limits assumed): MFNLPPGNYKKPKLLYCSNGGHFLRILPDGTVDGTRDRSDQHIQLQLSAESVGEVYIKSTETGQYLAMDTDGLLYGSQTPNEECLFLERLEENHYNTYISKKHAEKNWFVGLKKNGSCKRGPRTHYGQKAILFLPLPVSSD
Text: STD-NMR [30] studies were acquired for all the trisaccharides in the library in presence of FGF-1 using the same experimental conditions (see material and methods). Transference of saturation for all trisaccharides probed the interaction with the protein. Nevertheless, in contrast to the case of Langerin interaction, the results differed between the different compounds, indicating the existence of some differences in binding. Unfortunately, the spectral crowding only allowed us to accurately integrate the three anomeric signals along the saturation times, see Figure 3. Using a methodology previously described for disconnect the effect from proton relaxation on the STD values at a given time, the values of the initial rate of growth of STD (STD0) for the considered signals were obtained for the signals under consideration (Figure 4, Table 1). The distribution of magnetization along the trisaccharide chain is rather homogeneous, and is compatible with an extended interaction along the positive cleft of FGF-1, where the main binding site is located.
STD-NMR Experiments. All the samples were prepared in 250 μL 5 mM phostate buffer at pH 6.0 and 100 mM NaCl in 99.9% D2O. The concentration of the protein was 19 µM, and the ligand was 1.6 mM. The ratio between the protein and ligand was 1:84. The experiments were performed at 289 K. STD-NMR experiments were carried out with spin-lock to suppress protein signals. Moreover, we tried to suppress the solvent using excitation sculpting with gradients, and we used a shaped pulse train for saturation, alternating between on and off resonance. The on-resonance and off-resonance frequencies were set to 0.7 and 40 ppm, respectively. A spoil sequence was used to destroy unwanted magnetization. The saturation times were 0.5, 1, 2, 3 and 4 s, with an additional delay set to 3.6, 3.1, 2.1, 1.1 and 0.1, respectively, in order to keep the relaxation delay constant at […] for all experiments. STD NMR experiments were performed with 2048 scans with a total experimental time for every point of 5 h.
The STD initial rates (STD0) were calculated from the curve of STD vs. saturation time. To do so, we utilized the equation: STD0(t) = a [1 − exp (−bt)], where a represents the asymptotic maximum of the STD build-up curve (STDmax), b is a rate constant that depends on the relaxation properties of a given proton that measures the rate of the STD build-up (Ksat), and t is the saturation time (tsat). The STD0 values were obtained as the product of the ab coefficients.

Human recombinant FGF-1 [2] = target: T1, Human recombinant FGF-1; test: IC50 by STD-NMR, initial rates of the STD affinity factor (STD0-AF); type: binding; settings: 600 MHz, 298 K; authors do not support validity of the result; read-out: IC50 (STD-NMR, STD0-AF method)
Experimental: (§1) IC50 values using STD-NMR were calculated for compound 1 at different concentrations based on the initial rates of the affinity factor method (Figure 5). […] In this case, due to the electrostatic nature of the complex, the gap between the protein and the ligand protons is very large, yielding low magnetization transfer values. On other hand, the small binding constant implies a large consumption of trisaccharide due to the high concentration needed to complete a meaningful titration curve. This, together with the large amount of time needed to record the full series of experiments, forced us to consider another method for the estimation of the IC50. Thus, we explored the IC50 calculation using selective T1 at different concentrations (Figure 6). Nevertheless, they are in agreement with the values obtained by Yu-Peng et al., when performing the same measure with disaccharides and FGF-2 by ITC [18].
STD-NMR Experiments. […]
IC50 was obtained using the initial rates of the STD affinity factor approximation. The STD-AF initial slopes (STD-AF0) were calculated as before from the curve of STD-AF vs. saturation time at several ligand concentrations. From these initial slopes, the binding isotherm was built (STD-AF0 vs. ligand concentration), and the curve fitted to a Langmuir equation, from which the IC50 value was determined.

Human recombinant FGF-1 [3] = target: T1, Human recombinant FGF-1; test: IC50 by selective T1 (T1sel) NMR at different ligand concentrations; type: binding; settings: T1sel method; 20 μM protein, ligand 80-640 μM
Experimental: as §1
Selective T1 NMR experiments. The samples were prepared using the same buffer at 20 μM protein concentration, while ligand concentration was 80, 160, 320, 480 and 640 μM. The ratios between protein and ligand were then 1:4, 1:8, 1:16, 1:24 and 1:32, respectively. We carry out studies on ^1H longitudinal relaxation rate (1/T1(sel). The relaxation times were measured by inversion recovery pulse sequence.
To determine the IC50, we adjusted the experimental values of the intensity signals vs. recovery delays to obtain an exponential function. We obtained the selective T1 value by f(t) = I0 × [1 − a × exp (−t/T1)]. In a ligand-receptor system where the ligand is present in large excess over the receptor binding sites, the ligand relaxation rate is describe by 1/T1obs = 1/T1free + fbound/(T1bound + tbound), where fbound is the fraction bound ([PL]/[L]) and τbound is the lifetime of the bound state. The relationship between total ligand concentration and T1 is then [P]0T1obs = ([L]0 + IC50)(T1bound + τbound), and a plot of [P]0 T1obs versus [L]0 gives a straight line with IC50 obtained from the intercept of the x axis.

Human recombinant FGF-1 [4] = target: T1, Human recombinant FGF-1; test: STD-NMR initial growth rates (STD0) of trisaccharides in presence of FGF-1; type: binding; settings: 600 MHz, 289 K, protein 19 µM, ligand 1.6 mM; for STD0 H1-A: anomeric proton of ring A; for STD0 H1-B: anomeric proton of ring B
[5] = target: WGA (Wheat Germen Agglutinin); test: T1sel validation assay: binding of GlcNAc to WGA; settings: T1sel method; lectin 20 uM; preliminary assay
Experimental: page 7: Calculation of Binding Constants using T1sel. We have used the T1sel method for the evaluation of the KD binding. In order to assess the validity of the method we performed a preliminary assay using the known system of the binding of GlcNAc to WGA (Wheat […] Agglutinin) using a concentration of lectin of 20 uM. […] T1sel method is described in the experimental section of the main paper. (1 picture or pasted object on this page, not shown here)

[6] = target: WGA (Wheat Germen Agglutinin); settings: reported value, no reference given; cited from earlier work

STD0 H1-C (Human recombinant FGF-1 [1]) | Relative STD0 H1-A (Human recombinant FGF-1 [1]) | Relative STD0 H1-B (Human recombinant FGF-1 [1]) | Relative STD0 H1-C (Human recombinant FGF-1 [1]) | IC50 (Human recombinant FGF-1 [2]) | IC50 (Human recombinant FGF-1 [3]) | STD0 H1-A (Human recombinant FGF-1 [4]) | STD0 H1-B (Human recombinant FGF-1 [4]) | Kd [5] | Compound | Kd [6]
0.24 | 67 | 100 | 94 | 1700 µM | 84.7 ± 0.4 µM | 0.17 | 0.25 | – | CC(=O)N[C@H]1[C@@H](OC(C)C)O[C@H](COS(=O)(=O)O)[C@@H](O[C@@H]2O[C@@H](C(=O)O)[C@@H](O[C@H]3O[C@H](CO)[C@@H](O)[C@H](O)[C@H]3NS(=O)(=O)O)[C@H](O)[C@H]2OS(=O)(=O)O)[C@@H]1O [Compound 4] | –
– | – | – | – | – | – | – | – | 2100 µM | CC(=O)N[C@H]1C(O)O[C@H](CO)[C@@H](O)[C@@H]1O (stereo partly shown) [GlcNAc] | 2500 µM
0.11 | 100 | 48 | 64 | – | 46.7 ± 0.9 µM | 0.18 | 0.08 | – | CC(C)O[C@H]1O[C@H](CO)[C@@H](O[C@@H]2O[C@@H](C(=O)O)[C@@H](O[C@H]3O[C@H](CO)[C@@H](O)[C@H](O)[C@H]3NS(=O)(=O)O)[C@H](O)[C@H]2OS(=O)(=O)O)[C@H](O)[C@H]1NS(=O)(=O)O [Compound 7] | –
0.20 | 72 | 100 | 88 | – | 15.4 ± 0.4 µM | 0.17 | 0.23 | – | CC(C)O[C@H]1O[C@H](COS(=O)(=O)O)[C@@H](O[C@@H]2O[C@@H](C(=O)O)[C@@H](O[C@H]3O[C@H](CO)[C@@H](O)[C@H](O)[C@H]3NS(=O)(=O)O)[C@H](O)[C@H]2OS(=O)(=O)O)[C@H](O)[C@H]1NS(=O)(=O)O [Compound 3] | –
0.42 | 66 | 80 | 100 | 1700 ± 10 µM | 49.2 ± 0.3 µM | 0.28 | 0.34 | – | CC(C)O[C@H]1O[C@H](COS(=O)(=O)O)[C@@H](O[C@@H]2O[C@@H](C(=O)O)[C@@H](O[C@H]3O[C@H](COS(=O)(=O)O)[C@@H](O)[C@H](O)[C@H]3NS(=O)(=O)O)[C@H](O)[C@H]2OS(=O)(=O)O)[C@H](O)[C@H]1NS(=O)(=O)O [Compound 1] | –
0.19 | – | 99 | 100 | – | 132 ± 1.8 µM | – | 0.18 | – | CC(=O)N[C@H]1[C@@H](OC(C)C)O[C@H](CO)[C@@H](O[C@@H]2O[C@@H](C(=O)O)[C@@H](O[C@H]3O[C@H](CO)[C@@H](O)[C@H](O)[C@H]3NS(=O)(=O)O)[C@H](O)[C@H]2OS(=O)(=O)O)[C@@H]1O [Compound 8] | –
0.12 | 62 | 100 | 94 | – | 181 ± 5.5 µM | 0.08 | 0.12 | – | CC(=O)N[C@H]1[C@@H](OC(C)C)O[C@H](CO)[C@@H](O[C@@H]2O[C@@H](C(=O)O)[C@@H](O[C@H]3O[C@H](COS(=O)(=O)O)[C@@H](O)[C@H](O)[C@H]3NS(=O)(=O)O)[C@H](O)[C@H]2OS(=O)(=O)O)[C@@H]1O [Compound 6] | –
0.06 | 100 | 82 | 87 | – | 50.6 ± 0.1 µM | 0.07 | 0.06 | – | CC(C)O[C@H]1O[C@H](CO)[C@@H](O[C@@H]2O[C@@H](C(=O)O)[C@@H](O[C@H]3O[C@H](COS(=O)(=O)O)[C@@H](O)[C@H](O)[C@H]3NS(=O)(=O)O)[C@H](O)[C@H]2OS(=O)(=O)O)[C@H](O)[C@H]1NS(=O)(=O)O [Compound 5] | –
0.24 | 31 | 100 | 68 | – | 26.1 ± 0.7 µM | 0.11 | 0.36 | – | CC(=O)N[C@H]1[C@@H](OC(C)C)O[C@H](COS(=O)(=O)O)[C@@H](O[C@@H]2O[C@@H](C(=O)O)[C@@H](O[C@H]3O[C@H](COS(=O)(=O)O)[C@@H](O)[C@H](O)[C@H]3NS(=O)(=O)O)[C@H](O)[C@H]2OS(=O)(=O)O)[C@@H]1O [Compound 2] | –
